Laboratory results from ChEMBL document CHEMBL2331098, “Unprecedented polyketides from a marine sponge-associated Stachylidium sp” (J Nat Prod, 2013).
Activity calls are given as the source filed them.

How the values were obtained:
SF-268 = assay: Cytotoxicity against human SF268 cells at 100 uM; format: functional, cell-based
MCF7 = assay: Cytotoxicity against human MCF7 cells at 100 uM; format: functional, cell-based
NCI-H460 = assay: Cytotoxicity against human NCI-H460 cells at 100 uM; format: functional, cell-based
Adipocyte [1] = assay: Induction of glucose uptake in mouse primary adipocyte cells at 100 uM; format: functional, cell-based
3T3-L1 = assay: Induction of glucose uptake in mouse 3T3L1 cells at 100 uM; format: functional, cell-based
[2] = target: Tyrosine-protein phosphatase non-receptor type 1 (Homo sapiens) (UniProt P18031); assay: Inhibition of PTP1B (unknown origin)
Chain of Tyrosine-protein phosphatase non-receptor type 1 (Homo sapiens) (P18031 whole entry): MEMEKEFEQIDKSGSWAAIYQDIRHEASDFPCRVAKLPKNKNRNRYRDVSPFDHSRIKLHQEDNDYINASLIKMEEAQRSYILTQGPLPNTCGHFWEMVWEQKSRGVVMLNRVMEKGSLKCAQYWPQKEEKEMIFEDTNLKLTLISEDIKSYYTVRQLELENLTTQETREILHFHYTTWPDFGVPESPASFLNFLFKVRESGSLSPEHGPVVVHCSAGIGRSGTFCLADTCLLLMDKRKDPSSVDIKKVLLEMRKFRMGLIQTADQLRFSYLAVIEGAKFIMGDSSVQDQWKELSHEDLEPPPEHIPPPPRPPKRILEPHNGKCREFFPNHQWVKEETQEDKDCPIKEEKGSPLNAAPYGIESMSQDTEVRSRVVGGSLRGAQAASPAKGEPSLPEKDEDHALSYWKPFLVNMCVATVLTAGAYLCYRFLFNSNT

[3] = target: T1, Peroxisome proliferator-activated receptor (Homo sapiens) (UniProt P37231+Q07869+Q03181); assay: Activity at PPAR (unknown origin) by PPAR co-activator assay; format: protein assay
[4] = target: T1, Peroxisome proliferator-activated receptor (Homo sapiens); assay: Activity at PPAR (unknown origin) by PPAR ligand assay; format: protein assay
Homo sapiens = species: Homo sapiens; assay: Inhibition of NF-kappaB protein complex (unknown origin) at 100 uM
[Chlorella] fusca = Antimicrobial activity against Chlorella fusca; format: functional, organism-based; details: Scenedesmus fuscus
Microbotryum violaceum = assay: Antimicrobial activity against Microbotryum violaceum; format: functional, organism-based
Aspergillus ruber = assay: Antimicrobial activity against Eurotium rubrum; format: functional, organism-based
Mycotypha microspora = assay: Antimicrobial activity against Mycotypha microspora; format: functional, organism-based
Priestia megaterium = assay: Antimicrobial activity against Bacillus megaterium; format: functional, organism-based
Escherichia coli = assay: Antimicrobial activity against Escherichia coli; format: functional, organism-based
Adipocyte [5] = assay: Induction of glucose uptake in rat primary adipocyte cells at 100 uM; format: functional, cell-based

COc1c(C)c(O)cc2c1C(O)CC2=O (configuration not stated)
inactive: Activity (SF-268) | Activity (MCF7) | Activity (NCI-H460) | inhibition (Adipocyte [1]) | inhibition (3T3-L1) | inhibition [2] | Activity [3] | Activity [4] | Activity (Homo sapiens) | Activity ([Chlorella] fusca) | Activity (Microbotryum violaceum) | Activity (Aspergillus ruber) | Activity (Mycotypha microspora) | Activity (Priestia megaterium) | Activity (Escherichia coli) | inhibition (Adipocyte [5])

COc1c(C)c(OC/C=C(\C)CCC=C(C)C)cc2c1[C@H](OC)O[C@@]2(C)OC
inactive: Activity (SF-268) | Activity (MCF7) | Activity (NCI-H460) | Activity (Homo sapiens) | Activity ([Chlorella] fusca) | Activity (Microbotryum violaceum) | Activity (Aspergillus ruber) | Activity (Mycotypha microspora) | Activity (Priestia megaterium) | Activity (Escherichia coli)

CCc1cc(O)c(C)c(=O)o1
inactive: inhibition (Adipocyte [1]) | inhibition (3T3-L1) | inhibition [2] | Activity [3] | Activity [4] | Activity ([Chlorella] fusca) | Activity (Microbotryum violaceum) | Activity (Aspergillus ruber) | Activity (Mycotypha microspora) | Activity (Priestia megaterium) | Activity (Escherichia coli) | inhibition (Adipocyte [5])

COCc1c(CO)cc(O)c(C)c1OC
inactive: Activity ([Chlorella] fusca) | Activity (Microbotryum violaceum) | Activity (Aspergillus ruber) | Activity (Mycotypha microspora) | Activity (Priestia megaterium) | Activity (Escherichia coli)

COc1c(C)c(OC/C=C(\C)CCC=C(C)C)cc2c1[C@H](OC)O[C@]2(C)OC
inactive: Activity (Homo sapiens) | Activity ([Chlorella] fusca) | Activity (Microbotryum violaceum) | Activity (Aspergillus ruber) | Activity (Mycotypha microspora) | Activity (Priestia megaterium) | Activity (Escherichia coli)

CCc1cc(O)c(C)c(OC)c1CC(C)C(=O)CC(O)CC (configuration not stated)
inactive: Activity ([Chlorella] fusca) | Activity (Microbotryum violaceum) | Activity (Aspergillus ruber) | Activity (Mycotypha microspora) | Activity (Priestia megaterium) | Activity (Escherichia coli)
